Source: the OligoGym collection
Values joined by “and” are separate entries in the source; they are usually repeats but may differ in a detail not shown here. Identical values can stand only once. After the bases stand the sugars from the 5' end (letter, count) and the backbone: PS all phosphorothioate, else s phosphorothioate and o phosphodiester by linkage. Methylation of C is not given here. k = constrained ethyl (cEt); d = 2'-deoxy (DNA)

Biological target: MALAT1
Settings: ASO, A431, 0.005 µM

## GGTTACCAATAATTTC (sugars k3 d10 k3, PS)
  target mRNA inhibition: 93%

## GGTTTCCTCAAGCTCC (sugars k3 d10 k3, PS)
  target mRNA inhibition: 34%

## GTAAGAATTAAGACCA (sugars k3 d10 k3, PS)
  target mRNA inhibition: 37%

## GTAAGCCCCACCCCCT (sugars k3 d10 k3, PS)
  target mRNA inhibition: -35%

## GTAGGTATAGTTTACC (sugars k3 d10 k3, PS)
  target mRNA inhibition: 39%

## GTATGAGCTTCAGACC (sugars k3 d10 k3, PS)
  target mRNA inhibition: -6%

## GTCAATAGTGTAAAAC (sugars k3 d10 k3, PS)
  target mRNA inhibition: 33%

## GTCAATTTATAGACCC (sugars k3 d10 k3, PS)
  target mRNA inhibition: 18%

## GTCCCATAACTGATCT (sugars k3 d10 k3, PS)
  target mRNA inhibition: 35%

## GTCCCTGAAGGTGTTC (sugars k3 d10 k3, PS)
  target mRNA inhibition: 23%

## GTCCTTTTAGTAGCTT (sugars k3 d10 k3, PS)
  target mRNA inhibition: 50% and 72%

## GTCTAGGATCCTCTAC (sugars k3 d10 k3, PS)
  target mRNA inhibition: 14%

## GTCTGAGGCAAACGAA (sugars k3 d10 k3, PS)
  target mRNA inhibition: 29%

## GTCTGATTATCCTGAT (sugars k3 d10 k3, PS)
  target mRNA inhibition: 33%

## GTGAGAACTGCTCTAG (sugars k3 d10 k3, PS)
  target mRNA inhibition: 36%

## GTGCCTGGAATTATTA (sugars k3 d10 k3, PS)
  target mRNA inhibition: 39%

## GTGGCAAAATGGCGGA (sugars k3 d10 k3, PS)
  target mRNA inhibition: 21%

## GTGTAAAACATTGCCT (sugars k3 d10 k3, PS)
  target mRNA inhibition: 0%

## GTGTGGTTGCCAAGCC (sugars k3 d10 k3, PS)
  target mRNA inhibition: 43% and 37% and 50%

## GTGTTATGCCTGGTTA (sugars k3 d10 k3, PS)
  target mRNA inhibition: 2%

## GTTAAAAACTTAACGC (sugars k3 d10 k3, PS)
  target mRNA inhibition: 4%

## GTTAAGACCATCCCAA (sugars k3 d10 k3, PS)
  target mRNA inhibition: 19%

## GTTAAGAGAAGCCCAG (sugars k3 d10 k3, PS)
  target mRNA inhibition: 20%

## GTTAAGTTTTCAGCAG (sugars k3 d10 k3, PS)
  target mRNA inhibition: 17%

## GTTACATGTTCCCACC (sugars k3 d10 k3, PS)
  target mRNA inhibition: 37%

## GTTATGCCTGGTTAGG (sugars k3 d10 k3, PS)
  target mRNA inhibition: 16%

## TAAAAAGGCTCGATGG (sugars k3 d10 k3, PS)
  target mRNA inhibition: 39%

## TAAACCTGTGGTGGTC (sugars k3 d10 k3, PS)
  target mRNA inhibition: 30%

## TAAACTCACTGCAAGG (sugars k3 d10 k3, PS)
  target mRNA inhibition: 14%

## TAAAGAGTGTTCGCAG (sugars k3 d10 k3, PS)
  target mRNA inhibition: 51%

## TAAAGTCTGATTAAGG (sugars k3 d10 k3, PS)
  target mRNA inhibition: 4%

## TAAAGTGTGATAGTTC (sugars k3 d10 k3, PS)
  target mRNA inhibition: 14%

## TAAATTGGTTACCAAT (sugars k3 d10 k3, PS)
  target mRNA inhibition: 25%

## TAACGAAGAGATACCT (sugars k3 d10 k3, PS)
  target mRNA inhibition: 22%

## TAAGACCATCCCAAAA (sugars k3 d10 k3, PS)
  target mRNA inhibition: 16%

## TAAGATAGCAGCACAA (sugars k3 d10 k3, PS)
  target mRNA inhibition: -3%

## TAAGATTGTAAGCATT (sugars k3 d10 k3, PS)
  target mRNA inhibition: 23%

## TAAGTTGGTAATTACT (sugars k3 d10 k3, PS)
  target mRNA inhibition: 17%

## TAATACCCTTCTGTTA (sugars k3 d10 k3, PS)
  target mRNA inhibition: 19%

## TAATCATACTCCAGTC (sugars k3 d10 k3, PS)
  target mRNA inhibition: -3%

## TAATGCACTGGTACAC (sugars k3 d10 k3, PS)
  target mRNA inhibition: -22%

## TACAACACCCGGAAAT (sugars k3 d10 k3, PS)
  target mRNA inhibition: 16%

## TACACCTTGAGTCATT (sugars k3 d10 k3, PS)
  target mRNA inhibition: 38%

## TACACTCACTAGAACA (sugars k3 d10 k3, PS)
  target mRNA inhibition: 3%

## TACATCAAGGATGTAT (sugars k3 d10 k3, PS)
  target mRNA inhibition: 2%

## TACCACCTTTTGAAGG (sugars k3 d10 k3, PS)
  target mRNA inhibition: 13%

## TACCACTCCCAATTAA (sugars k3 d10 k3, PS)
  target mRNA inhibition: 12%

## TACCACTCTAAGATTG (sugars k3 d10 k3, PS)
  target mRNA inhibition: 5%

## TACCATAAGTAAGTTC (sugars k3 d10 k3, PS)
  target mRNA inhibition: 4%

## TACCGTTTTTCAGCTT (sugars k3 d10 k3, PS)
  target mRNA inhibition: -31%

## TACCTTGAAACCGATT (sugars k3 d10 k3, PS)
  target mRNA inhibition: 36%

## TACTCTGATCATAATC (sugars k3 d10 k3, PS)
  target mRNA inhibition: 17%

## TACTGAAAACTCCCCC (sugars k3 d10 k3, PS)
  target mRNA inhibition: 22%

## TACTTGTCTTAGCTTG (sugars k3 d10 k3, PS)
  target mRNA inhibition: 51%

## TACTTTCCATTACGCA (sugars k3 d10 k3, PS)
  target mRNA inhibition: 16%

## TAGCTTCCTTCACCAA (sugars k3 d10 k3, PS)
  target mRNA inhibition: -1%

## TAGGGCTTCTCAAAAC (sugars k3 d10 k3, PS)
  target mRNA inhibition: 4%

## TAGTGGTTCCCAATCC (sugars k3 d10 k3, PS)
  target mRNA inhibition: 14%

## TAGTTCAACCCACCAA (sugars k3 d10 k3, PS)
  target mRNA inhibition: -14%

## TAGTTGTATTAATCTC (sugars k3 d10 k3, PS)
  target mRNA inhibition: 38%

## TAGTTTACCACCTTTT (sugars k3 d10 k3, PS)
  target mRNA inhibition: 15%

## TATGGAACTTGAATGC (sugars k3 d10 k3, PS)
  target mRNA inhibition: 24%

## TATTCCCCAATGGAGG (sugars k3 d10 k3, PS)
  target mRNA inhibition: 17%

## TATTCTTTTCTTCGCC (sugars k3 d10 k3, PS)
  target mRNA inhibition: 49%

## TCAACTGGGAATACTC (sugars k3 d10 k3, PS)
  target mRNA inhibition: 17%

## TCAAGGTCTTTTAATC (sugars k3 d10 k3, PS)
  target mRNA inhibition: 41%

## TCAATGCCTACCGCAC (sugars k3 d10 k3, PS)
  target mRNA inhibition: 3%

## TCACAAAACCCCCGGA (sugars k3 d10 k3, PS)
  target mRNA inhibition: 16%

## TCACCAAGGAGCTGTT (sugars k3 d10 k3, PS)
  target mRNA inhibition: 12%

## TCAGGCGAGCTGAGGC (sugars k3 d10 k3, PS)
  target mRNA inhibition: 7%

## TCAGGGTGAGGAAGTA (sugars k3 d10 k3, PS)
  target mRNA inhibition: 50%

## TCATACACTCACTAGA (sugars k3 d10 k3, PS)
  target mRNA inhibition: -22%

## TCATACTGCCAGGCTG (sugars k3 d10 k3, PS)
  target mRNA inhibition: 29%

## TCATATTTTAAACGGG (sugars k3 d10 k3, PS)
  target mRNA inhibition: 23%

## TCATCAAACACCTCAC (sugars k3 d10 k3, PS)
  target mRNA inhibition: -8%

## TCATCAAACACTGGTT (sugars k3 d10 k3, PS)
  target mRNA inhibition: 36%

## TCATCTCAACCTCCGT (sugars k3 d10 k3, PS)
  target mRNA inhibition: 57% and 49%

## TCCAAAAGAGAACCAC (sugars k3 d10 k3, PS)
  target mRNA inhibition: 21%

## TCCAAGCTACTGGCTG (sugars k3 d10 k3, PS)
  target mRNA inhibition: 20%

## TCCAATGGACATCTCT (sugars k3 d10 k3, PS)
  target mRNA inhibition: 25%

## TCCAGGATTAATGTAG (sugars k3 d10 k3, PS)
  target mRNA inhibition: 48%

## TCCATTACGCAACTGA (sugars k3 d10 k3, PS)
  target mRNA inhibition: 9%

## TCCCACCCAGCATTAC (sugars k3 d10 k3, PS)
  target mRNA inhibition: 27%

## TCCCTATATAAGGTCA (sugars k3 d10 k3, PS)
  target mRNA inhibition: 5%

## TCCGCCGCCTCTTAAA (sugars k3 d10 k3, PS)
  target mRNA inhibition: 26%

## TCCGCTAAGATGCTAG (sugars k3 d10 k3, PS)
  target mRNA inhibition: 15%

## TCCGCTCAAATCCTGA (sugars k3 d10 k3, PS)
  target mRNA inhibition: 26%

## TCCGTCATGTTTTAGA (sugars k3 d10 k3, PS)
  target mRNA inhibition: 50% and 48%

## TCCGTTACGAAAGTCC (sugars k3 d10 k3, PS)
  target mRNA inhibition: 64% and 59% and 50%

## TCCTAGCTTCATCAAA (sugars k3 d10 k3, PS)
  target mRNA inhibition: 7%

## TCCTCAAGCTCCGCCT (sugars k3 d10 k3, PS)
  target mRNA inhibition: 23%

## TCCTGCATGTAAGAAT (sugars k3 d10 k3, PS)
  target mRNA inhibition: 15%

## TCCTTCACCAAATCGC (sugars k3 d10 k3, PS)
  target mRNA inhibition: 36%

## TCGCACTGGCTCCTGG (sugars k3 d10 k3, PS)
  target mRNA inhibition: 42%

## TCGCCATGGAAAGCGA (sugars k3 d10 k3, PS)
  target mRNA inhibition: 15%

## TCGCTTTTATTCTGCT (sugars k3 d10 k3, PS)
  target mRNA inhibition: 22%

## TCTAATCACTGTCAAT (sugars k3 d10 k3, PS)
  target mRNA inhibition: 32%

## TCTACCGTTTTTCAGC (sugars k3 d10 k3, PS)
  target mRNA inhibition: 26%

## TCTAGACAGACCTAAG (sugars k3 d10 k3, PS)
  target mRNA inhibition: -6%

## TCTATTGCCATGTGCC (sugars k3 d10 k3, PS)
  target mRNA inhibition: 41%

## TCTCGGGCTGCAGGCT (sugars k3 d10 k3, PS)
  target mRNA inhibition: 20%

## TCTCTAACCCAGTTTG (sugars k3 d10 k3, PS)
  target mRNA inhibition: 16%

## TCTGAAGAATACCATC (sugars k3 d10 k3, PS)
  target mRNA inhibition: 15%

## TCTGATCATAATCTCC (sugars k3 d10 k3, PS)
  target mRNA inhibition: 39%

## TCTGGAAAAGCTAGGG (sugars k3 d10 k3, PS)
  target mRNA inhibition: -21%

## TCTGTGCTAGATCAAA (sugars k3 d10 k3, PS)
  target mRNA inhibition: 61%

## TCTTCTAAATTGGTTC (sugars k3 d10 k3, PS)
  target mRNA inhibition: 49%

## TGAAGAATACCATCTG (sugars k3 d10 k3, PS)
  target mRNA inhibition: 30%

## TGAAGGATGAAATGCC (sugars k3 d10 k3, PS)
  target mRNA inhibition: 29%

## TGACACTTCTCTTGAC (sugars k3 d10 k3, PS)
  target mRNA inhibition: 30%

## TGACCTTAGGATAATA (sugars k3 d10 k3, PS)
  target mRNA inhibition: 62%

## TGAGTGAAGTGTACTA (sugars k3 d10 k3, PS)
  target mRNA inhibition: 42%

## TGATAACGAAGAGATA (sugars k3 d10 k3, PS)
  target mRNA inhibition: 15%

## TGATAGTTCAGGGCTT (sugars k3 d10 k3, PS)
  target mRNA inhibition: 9%
